Laboratory results reported in patent US6781020B2, “Water soluble bactericide and producing method thereof” (VMC Co., Ltd., priority 2001, dated 2004).

How the values were obtained:
[1] = biological target: T1, catalase (Homo sapiens, UniProt P04040); test: catalase test, oxidation ability in time sequence by potassium iodide titration; assay type: physicochemical; settings: catalase final concentration 0.003%
T1 sequence (P04040 1-527): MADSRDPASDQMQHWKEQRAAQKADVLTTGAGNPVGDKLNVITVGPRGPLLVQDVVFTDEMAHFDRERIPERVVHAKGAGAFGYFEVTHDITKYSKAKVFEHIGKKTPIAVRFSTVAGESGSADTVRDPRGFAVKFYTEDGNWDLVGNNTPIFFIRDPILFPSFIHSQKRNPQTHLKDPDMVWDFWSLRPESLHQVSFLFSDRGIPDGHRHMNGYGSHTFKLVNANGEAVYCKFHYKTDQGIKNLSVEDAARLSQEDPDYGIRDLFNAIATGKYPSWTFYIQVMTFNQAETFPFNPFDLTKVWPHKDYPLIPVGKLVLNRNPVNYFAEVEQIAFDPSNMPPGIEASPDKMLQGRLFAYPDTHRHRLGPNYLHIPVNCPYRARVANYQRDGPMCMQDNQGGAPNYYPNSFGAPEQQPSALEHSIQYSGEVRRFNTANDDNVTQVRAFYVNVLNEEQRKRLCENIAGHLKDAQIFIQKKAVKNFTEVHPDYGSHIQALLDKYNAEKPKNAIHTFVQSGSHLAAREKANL

[2] = system: standard strain of Pseudomonas aeruginosa; test: bactericidal ability test, development of bacteria after contact and overnight culture; assay type: cell-based; settings: ozone-oxidized glycerin of about 10 unit/g, cultured overnight at 37° C., FIG. 1
[3] = system: standard strain of Staphylococcus aureus; test: as above; assay type: cell-based; settings: ozone-oxidized glycerin of about 10 unit/g, cultured overnight at 37° C., FIG. 1
[4] = system: clinical isolated strain of Salmonella; settings: ozone-oxidized glycerin of about 10 unit/g, cultured overnight at 37° C., FIG. 1
[5] = system: standard strain of Escherichia coli; test: bactericidal ability test, development of bacteria after contact and overnight culture; assay type: cell-based; settings: ozone-oxidized glycerin of about 10 unit/g, cultured overnight at 37° C., FIG. 1

SMILES	time until the oxidation ability almost disappeared ([1]; 0.03% hydrogen peroxide solution, FIG. 8 left) [min]	attenuation of the oxidation ability due to catalase ([1]; FIG. 8)	bactericidal effects [2]	bactericidal effects [3]	bactericidal effects [4]	bactericidal effects [5]
OO [hydrogen peroxide]	5	rapidly attenuated				
OCC(O)CO [glycerin]			not recognized	not recognized	not recognized	not recognized
